# System: Aβ42 secretion
# Assay: Cellular γ-secretase assay (inhibition of Aβ42 secretion)
# Assay type: cell-based
# Conditions: Homo sapiens, 22 h, human neuroglioma H4 cells overexpressing human APP, 22 hours incubation
# Experimental: Cellular γ-Secretase Assay
# The compounds were investigated in accordance with the test given hereinafter.
# Human neuroglioma H4 cells overexpressing human APP were plated at 30,000 cells/well/200 μL in 96-well plates in IMDM media containing 10% FCS, […] Hygromycin B and incubated for 2 hours at 37° C., 5% CO2 prior to adding test compounds.
# Compounds for testing were dissolved in 100% Me2SO yielding in a 10 mM stock solution. Typically 12 μL of these solutions were further diluted in 1000 μL of IMDM media (w/o FCS). Subsequent 1:1 dilutions gave a ten point dose response curve. 100 μL of each dilution was added to the cells in 96-well plates. Appropriate controls using vehicle only and reference compound were applied to this assay. The final concentration of Me2SO was 0.4%.
# After incubation for 22 hours at 37° C., 5% CO2, 50 μL supernatant was transferred into round-bottom 96-well polypropylene plates for detection of Aβ42. 50 μL assay buffer (50 mM Tris/Cl, pH 7.4, 60 mM NaCl, 0.5% BSA, 1% TWEEN 20) was added to the wells followed by the addition of 100 μL of detection antibody (ruthenylated BAP15 0.0625 μg/mL in assay buffer). 50 μL of a premix of capture antibody (biotinylated 6E10 antibody, 1 μg/mL) and Streptavidin-coated magnetic beads (Dynal M-280, 0.125 mg/mL) were preincubated for 1 hour at room temperature before adding the assay plates. Assay plates were incubated on a shaker for 3 hours at room temperature and finally read in the Bioveris M8 Analyser according to the manufacturer's instructions (Bioveris).
# IC50 values for inhibition of Aβ42 secretion were calculated by nonlinear regression fit analysis using XLfit 4.0 software (IDBS).
row,EC50,Compound
1,657 nM,"O=C(Nc1cccc(F)c1)c1cc2cc(C3CCCN(CCO)C3)ccc2[nH]1 (centres unmarked) [Example 67, N-(3-Fluorophenyl)-5-(1-(2-hydroxyethyl)piperidin-3-yl)-1H-indole-2-carboxamide]"
2,777 nM,"O=C(Nc1cccc(F)c1)c1cc2cc(C3CCCN(CC4CCCO4)C3)ccc2[nH]1 (centres unmarked) [Example 68, N-(3-Fluorophenyl)-5-(1-((tetrahydrofuran-2-yl)methyl)piperidin-3-yl)-1H-indole-2-carboxamide]"
3,662 nM,"O=C(Nc1cccc(F)c1)c1cc2cc(C3CCCNC3)ccc2[nH]1 (centres unmarked) [Example 69, N-(3-Fluorophenyl)-5-(piperidin-3-yl)-1H-indole-2-carboxamide]"
4,810 nM,"CCN1CCCC(c2ccc3[nH]c(C(=O)Nc4cccc(F)c4)cc3c2)C1 (centres unmarked) [Example 70, 5-(1-Ethylpiperidin-3-yl)-N-(3-fluorophenyl)-1H-indole-2-carboxamide]"
5,977 nM,"O=C(Nc1cccc(F)c1)c1cc2cc(C3CCCN(CC4CC4)C3)ccc2[nH]1 (centres unmarked) [Example 71, 5-(1-(Cyclopropylmethyl)piperidin-3-yl)-N-(3-fluorophenyl)-1H-indole-2-carboxamide]"
6,1110 nM,"O=C(Nc1cccc(F)c1)c1cc2cc(C3CCCN(C4CC4)C3)ccc2[nH]1 (centres unmarked) [Example 72, 5-(1-Cyclopropylpiperidin-3-yl)-N-(3-fluorophenyl)-1H-indole-2-carboxamide]"
7,9290 nM,"O=C(Nc1cccc(F)c1)c1cc2cc(C3CCCN(CC(F)(F)F)C3)ccc2[nH]1 (centres unmarked) [Example 73, N-(3-Fluorophenyl)-5-(1-(2,2,2-trifluoroethyl)piperidin-3-yl)-1H-indole-2-carboxamide]"
8,1860 nM,"O=C(Nc1cncc(F)c1)c1cc2cc(C3CCN(Cc4ccccc4)C3)ccc2[nH]1 (centres unmarked) [Example 74, 5-(1-Benzyl-pyrrolidin-3-yl)-1H-indole-2-carboxylic acid (5-fluoro-pyridin-3-yl)-amide]"
9,1310 nM,"O=C(Nc1cncc(F)c1)c1cc2cc(C3CCNC3)ccc2[nH]1 (centres unmarked) [Example 75, N-(5-Fluoropyridin-3-yl)-5-(pyrrolidin-3-yl)-1H-indole-2-carboxamide]"
10,796 nM,"CC(C)N1CCC(c2ccc3[nH]c(C(=O)Nc4cncc(F)c4)cc3c2)C1 (centres unmarked) [Example 76, N-(5-Fluoropyridin-3-yl)-5-(1-isopropylpyrrolidin-3-yl)-1H-indole-2-carboxamide]"
11,3760 nM,"CC(C)OC(=O)N1CCC(c2ccc3[nH]c(C(=O)Nc4cncc(F)c4)cc3c2)C1 (centres unmarked) [Example 77, isopropyl 3-(2-(5-fluoropyridin-3-ylcarbamoyl)-1H-indol-5-yl)pyrrolidine-1-carboxylate]"
12,927 nM,"C=CCCN1CCC(c2ccc3[nH]c(C(=O)Nc4cncc(F)c4)cc3c2)C1 (centres unmarked) [Example 78, 5-(1-(But-3-enyl)pyrrolidin-3-yl)-N-(5-fluoropyridin-3-yl)-1H-indole-2-carboxamide]"
13,981 nM,"O=C(Nc1cncc(F)c1)c1cc2cc(C3CCN(CC4CC4)C3)ccc2[nH]1 (centres unmarked) [Example 79, 5-(1-(Cyclopropylmethyl)pyrrolidin-3-yl)-N-(5-fluoropyridin-3-yl)-1H-indole-2-carboxamide]"
14,942 nM,"N#CCN1CCC(c2ccc3[nH]c(C(=O)Nc4cncc(F)c4)cc3c2)C1 (centres unmarked) [Example 80, 5-(1-Cyanomethyl-pyrrolidin-3-yl)-1H-indole-2-carboxylic acid (5-fluoro-pyridin-3-yl)-amide]"
15,4250 nM,"N#CCN1CCC(c2ccc3c(c2)cc(C(=O)Nc2cncc(F)c2)n3CC#N)C1 (centres unmarked) [Example 81, 1-Cyanomethyl-5-(1-cyanomethyl-pyrrolidin-3-yl)-1H-indole-2-carboxylic acid (5-fluoro-pyridin-3-yl)-amide]"
16,1930 nM,"COCC(=O)N1CCC(c2ccc3[nH]c(C(=O)Nc4cncc(F)c4)cc3c2)C1 (centres unmarked) [Example 82, N-(5-Fluoropyridin-3-yl)-5-(1-(2-methoxyacetyl)pyrrolidin-3-yl)-1H-indole-2-carboxamide]"
17,3340 nM,"N#Cc1ccc(N2CCC(c3ccc4[nH]c(C(=O)Nc5cncc(F)c5)cc4c3)C2)nn1 (centres unmarked) [Example 83, 5-(1-(6-Cyanopyridazin-3-yl)pyrrolidin-3-yl)-N-(5-fluoropyridin-3-yl)-1H-indole-2-carboxamide]"
18,4860 nM,"O=C(Nc1cncc(F)c1)c1cc2cc(C3CCN(S(=O)(=O)c4ccc(F)cc4)C3)ccc2[nH]1 (centres unmarked) [Example 84, 5-(1-(4-Fluorophenylsulfonyl)pyrrolidin-3-yl)-N-(5-fluoropyridin-3-yl)-1H-indole-2-carboxamide]"
19,445 nM,"O=C(Nc1ccc(F)c(F)c1)c1cc2cc(C3=COCCC3)ccc2[nH]1 [Example 85, 5-(5,6-Dihydro-4H-pyran-3-yl)-1H-indole-2-carboxylic acid (3,4-difluoro-phenyl)-amide]"
20,990 nM,"O=C(Nc1ccc(F)c(F)c1)c1cc2cc(C3CCCOC3)ccc2[nH]1 (centres unmarked) [Example 86, 5-(Tetrahydro-pyran-3-yl)-1H-indole-2-carboxylic acid (3,4-difluoro-phenyl)-amide]"
21,321 nM,"CC(c1ccc2[nH]c(C(=O)Nc3cc(F)cc(F)c3)cc2c1)N1CCCC1=O (centres unmarked) [Example 88, 5-[1-(2-Oxo-pyrrolidin-1-yl)-ethyl]-1H-indole-2-carboxylic acid (3,5-difluoro-phenyl)-amide]"
22,4400 nM,"CC(c1ccc2[nH]c(C(=O)Nc3cc(F)cc(F)c3)cc2c1)N1CCCCC1=O (centres unmarked) [Example 89, 5-[1-(2-Oxo-piperidin-1-yl)-ethyl]-1H-indole-2-carboxylic acid (3,5-difluoro-phenyl)-amide]"
23,877 nM,"CC(c1ccc2[nH]c(C(=O)Nc3cc(F)cc(F)c3)cc2c1)N1CCCC1 (centres unmarked) [Example 90, 5-(1-Pyrrolidin-1-yl-ethyl)-1H-indole-2-carboxylic acid (3,5-difluoro-phenyl)-amide]"
24,1490 nM,"C=C(c1ccc2[nH]c(C(=O)Nc3cc(F)cc(F)c3)cc2c1)C1CCN(Cc2ccccc2)C1 (centres unmarked) [Example 91, 5-(1-(1-Benzylpyrrolidin-3-yl)vinyl)-N-(3,5-difluorophenyl)-1H-indole-2-carboxamide]"
25,1180 nM,"CC(c1ccc2[nH]c(C(=O)Nc3cc(F)cc(F)c3)cc2c1)C1CCNC1 (centres unmarked) [Example 92, N-(3,5-Difluorophenyl)-5-(1-(pyrrolidin-3-yl)ethyl)-1H-indole-2-carboxamide]"
26,1190 nM,"CC(c1ccc2[nH]c(C(=O)Nc3cc(F)cc(F)c3)cc2c1)C1CCN(C(C)C)C1 (centres unmarked) [Example 93, N-(3,5-Difluorophenyl)-5-(1-(1-isopropylpyrrolidin-3-yl)ethyl)-1H-indole-2-carboxamide]"
27,1340 nM,"CC(c1ccc2[nH]c(C(=O)Nc3cc(F)cc(F)c3)cc2c1)C1CCN(CC#N)C1 (centres unmarked) [Example 94, 5-(1-(1-(Cyanomethyl)pyrrolidin-3-yl)ethyl)-N-(3,5-difluorophenyl)-1H-indole-2-carboxamide]"
28,2480 nM,"CC(=O)N1CCC(C(C)c2ccc3[nH]c(C(=O)Nc4cc(F)cc(F)c4)cc3c2)C1 (centres unmarked) [Example 95, 5-(1-(1-Acetylpyrrolidin-3-yl)ethyl)-N-(3,5-difluorophenyl)-1H-indole-2-carboxamide]"

row,Compound,EC50
1,"CC(C)N1CC=C(c2ccc3[nH]c(C(=O)Nc4cc(F)cc(F)c4)cc3c2)CC1 [Example 87, 5-(1-Isopropyl-1,2,3,6-tetrahydro-pyridin-4-yl)-1H-indole-2-carboxylic acid (3,5-difluoro-phenyl)-amide]",1300 nM
